Literature values as cited in patent EP4568488B1, “VEGETABLE- AND/OR FRUIT-CONTAINING SNACK FOOD PRODUCTS AND MANUFACTURE THEREOF” (PepsiCo International Limited, priority 2022, dated 2024).
Like-named read-outs stand apart in the source and are kept apart here.

- half-life time of β-carotene (convective hot-air drying of carrot slices at 45°C): 3.02 ± 0.04 h
- half-life time of β-carotene (convective hot-air drying of carrot slices at 65°C): 1.43 ± 0.03 h
SMILES: CC1=C(/C=C/C(C)=C/C=C/C(C)=C/C=C/C=C(C)/C=C/C=C(C)/C=C/C2=C(C)CCCC2(C)C)C(C)(C)CCC1 [β-carotene]
